Results taken from patent publication US10213429B2, “Imidazo-pyrazinyl derivatives useful as soluble guanylate cyclase activators” (Merck Sharp & Dohme Corp., priority 2015, dated 2019).

Key:
[1] = test system: Spontaneously hypertensive rats (SHR); assay: Acute Efficacy in Spontaneously Hypertensive Rats (SHR), telemetry blood pressure; format: in vivo, rat; details: SHR male
Text: Acute Efficacy in Spontaneously Hypertensive Rats (SHR)
Spontaneously hypertensive rats (SHR, male, Charles River) were implanted with DSI TA11PA-C40 telemetry device (Data Sciences, Inc., St. Paul, Minn.) under isoflurane or ketamine/metomidine anesthesia. The telemetry unit catheter was inserted into the descending aorta via the femoral artery and the telemetry device was implanted subcutaneously in the left flank area. Animals were allowed to recover from surgery for 14 days before the start of any studies. Blood pressure, heart rate, and activity signals from conscious, freely moving rats were recorded continuously for 30 seconds every 10 minutes. On the day prior to administration of compound, a single oral dose of vehicle (10% transcutol/20% Cremophor/70% water) was administered to all animals to establish baseline control data. The blood pressure lowering efficacy of compound (PO) or vehicle was evaluated following a single oral gavage. Data were collected as hourly averages, and changes in blood pressure were calculated by subtracting control baseline data on an hourly basis. Animals were maintained on normal diet with a 12 hour light-dark cycle.
Maximum peak decreases of systolic blood pressure (SBP) in SHR at a particular P.O. dose (mpk milligrams per kilogram) for the following representative compounds are provided. • Category A=SBP in SHRs<20 mmHg; Category B=SBP in SHRs 20-40 mmHg; • Category C=SBP in SHRs>40 mmHg

sGC α1/β1 heterodimer = biological target: T1, sGC α1/β1 heterodimer (Homo sapiens, UniProt Q02108+Q02153); assay: Cell-Based sGC Functional Assay (CASA Assay), cGMP by HTRF in CHO-K1/sGC cells; details: for Emax: CHO-K1, percent activation relative to maximum cGMP production of Compound A (= 100%), read-out: % Act.; for EC50: cGMP production, 1 hr at 37° C., 4P fit, presence or absence of 1 μM DETA-NO not given, read-out: IP (nM) (inflection point)
T1 construct: expressed in transfected cells; host or cells: CHO-K1 (clone #7, CHO-K1/sGC)
T1 sequence (Q02108 1-690): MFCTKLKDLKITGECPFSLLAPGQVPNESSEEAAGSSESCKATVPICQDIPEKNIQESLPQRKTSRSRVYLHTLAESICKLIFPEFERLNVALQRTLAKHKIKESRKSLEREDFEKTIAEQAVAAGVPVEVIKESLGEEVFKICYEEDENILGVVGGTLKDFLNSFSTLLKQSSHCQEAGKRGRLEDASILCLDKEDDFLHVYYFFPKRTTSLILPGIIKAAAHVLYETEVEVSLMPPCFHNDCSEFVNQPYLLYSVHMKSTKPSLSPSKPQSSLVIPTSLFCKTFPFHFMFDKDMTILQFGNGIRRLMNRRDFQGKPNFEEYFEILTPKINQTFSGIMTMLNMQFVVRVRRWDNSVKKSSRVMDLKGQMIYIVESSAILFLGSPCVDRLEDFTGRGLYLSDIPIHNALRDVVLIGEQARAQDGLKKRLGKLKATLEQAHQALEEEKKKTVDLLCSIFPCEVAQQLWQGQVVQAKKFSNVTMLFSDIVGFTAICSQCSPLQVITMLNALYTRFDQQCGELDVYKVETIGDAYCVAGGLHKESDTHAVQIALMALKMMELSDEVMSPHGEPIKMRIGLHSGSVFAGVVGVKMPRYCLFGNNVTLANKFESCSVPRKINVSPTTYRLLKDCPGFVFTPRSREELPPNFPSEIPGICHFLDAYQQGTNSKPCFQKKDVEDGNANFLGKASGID
T1 sequence (Q02153 1-619): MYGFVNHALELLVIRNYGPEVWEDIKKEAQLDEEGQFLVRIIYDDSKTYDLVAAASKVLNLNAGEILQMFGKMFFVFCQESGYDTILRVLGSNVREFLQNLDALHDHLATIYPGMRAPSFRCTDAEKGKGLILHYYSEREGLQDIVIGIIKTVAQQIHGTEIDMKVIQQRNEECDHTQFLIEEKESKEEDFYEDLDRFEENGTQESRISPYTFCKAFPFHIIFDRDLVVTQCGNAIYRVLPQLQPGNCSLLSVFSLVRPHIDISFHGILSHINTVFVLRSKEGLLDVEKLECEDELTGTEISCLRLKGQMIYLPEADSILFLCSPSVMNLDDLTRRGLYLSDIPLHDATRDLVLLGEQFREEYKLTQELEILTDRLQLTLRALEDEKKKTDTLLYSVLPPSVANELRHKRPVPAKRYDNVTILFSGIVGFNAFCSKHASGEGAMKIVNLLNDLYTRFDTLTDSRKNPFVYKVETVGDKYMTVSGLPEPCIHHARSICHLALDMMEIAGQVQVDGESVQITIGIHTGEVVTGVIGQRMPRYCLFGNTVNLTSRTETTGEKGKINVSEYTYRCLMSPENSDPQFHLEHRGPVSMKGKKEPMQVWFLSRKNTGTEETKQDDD
Summary of the method: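 CHO-K1 cells stably expressing human sGC α1/β1, in EBSS buffer with 5 mM MgCl2, 10 mM HEPES, 0.05% BSA and 0.5 mM IBMX, incubated with compound (2.5% DMSO) ± 1 μM DETA-NO, 1 h, 37 °C. Intracellular cGMP read by HTRF; activity as % of reference activator maximum, IP from 4-parameter fit.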

SMILES | Emax (sGC α1/β1 heterodimer) [%] | EC50 (sGC α1/β1 heterodimer) [nM] | Cat. (maximum peak decrease of systolic blood pressure (SBP) in SHR) ([1]; single oral dose 3.0 mpk P.O.) | Cat. (maximum peak decrease of systolic blood pressure (SBP) in SHR) ([1]; single oral dose 1.0 mpk P.O.)
CC1(c2ccc(F)cc2)C(=O)Nc2nc(-c3cn4ccnc4c(OCCC4CC4)n3)nc(O)c21 (centres unmarked) [Example 93A, 2-(8-(2-Cyclopropylethoxy)imidazo[1,2-a]pyrazin-6-yl)-5-(4-fluorophenyl)-4-hydroxy-5-methyl-5H-pyrrolo[2,3-d]pyrimidin-6(7H)-one] | 86 | 163 | – | A (Category A=SBP in SHRs<20 mmHg)
O=C1Nc2nc(-c3cn4ccnc4c(CCC(F)(F)C(F)(F)F)n3)nc(O)c2C1(c1ccc(F)cc1)C1CC1 (centres unmarked) [Example 12B, 5-cyclopropyl-5-(4-fluorophenyl)-4-hydroxy-2-(8-(3,3,4,4,4-pentafluorobutyl)imidazo[1,2-a]pyrazin-6-yl)-5H-pyrrolo[2,3-d]pyrimidin-6(7H)-one] | 92 | 525 | A (Category A=SBP in SHRs<20 mmHg) | –
O=C1Nc2nc(-c3cn4ccnc4c(CCCC(F)(F)F)n3)nc(O)c2C1(c1ccc(Cl)cc1F)C1CC1 (centres unmarked) [Example 34A, 5-(4-chloro-2-fluorophenyl)-5-cyclopropyl-4-hydroxy-2-(8-(4,4,4-trifluorobutyl)imidazo[1,2-a]pyrazin-6-yl)-5H-pyrrolo[2,3-d]pyrimidin-6(7H)-one] | 124 | 102 | B (Category B=SBP in SHRs 20-40 mmHg) | –
CC1(c2ccc(Cl)cc2)C(=O)Nc2nc(-c3cn4ccnc4c(CCC(F)(F)C(F)(F)F)n3)nc(O)c21 (centres unmarked) [Example 4A, 5-(4-chlorophenyl)-4-hydroxy-5-methyl-2-(8-(3,3,4,4,4-pentafluorobutyl)imidazo[1,2-a]pyrazin-6-yl)-5H-pyrrolo[2,3-d]pyrimidin-6(7H)-one] | 83 | 125 | B (Category B=SBP in SHRs 20-40 mmHg) | –
CCCCc1nc(-c2ncc3c(n2)NC(=O)C3(C)c2ccc(F)cn2)cn2cc(C)nc12 (centres unmarked) [Example 91B, 2-(8-Butyl-2-methylimidazo[1,2-a]pyrazin-6-yl)-5-(5-fluoropyridin-2-yl)-5-methyl-5H-pyrrolo[2,3-d]pyrimidin-6(7H)-one] | 117 | 330 | – | –
CCCCc1nc(-c2ncc3c(n2)NC(=O)C3(c2ccc(Cl)cc2F)C2CC2)cn2ccnc12 (centres unmarked) [Example 45A, 2-(8-butylimidazo[1,2-a]pyrazin-6-yl)-5-(4-chloro-2-fluorophenyl)-5-cyclopropyl-5H-pyrrolo[2,3-d]pyrimidin-6(7H)-one] | 93 | 5 | – | –
CCCc1nc(-c2nc(O)c3c(n2)NC(=O)C3(C)c2ccc(Cl)c(F)c2)cn2ccnc12 (centres unmarked) [Example 15B, 5-(4-chloro-3-fluorophenyl)-4-hydroxy-5-methyl-2-(8-propylimidazo[1,2-a]pyrazin-6-yl)-5H-pyrrolo[2,3-d]pyrimidin-6(7H)-one] | 84 | 702 | – | –
O=C1Nc2nc(-c3cn4ccnc4c(CCCC(F)(F)F)n3)ncc2C1(c1ccc(Cl)cc1F)C1CC1 (centres unmarked) [Example 46A, 5-(4-chloro-2-fluorophenyl)-5-cyclopropyl-2-(8-(4,4,4-trifluorobutyl)imidazo[1,2-a]pyrazin-6-yl)-5H-pyrrolo[2,3-d]pyrimidin-6(7H)-one] | 135 | 10 | – | –

Further lines, with some results ahead:

Emax (sGC α1/β1 heterodimer) [%] | EC50 (sGC α1/β1 heterodimer) [nM] | SMILES | Cat. (maximum peak decrease of systolic blood pressure (SBP) in SHR) ([1]; single oral dose 3.0 mpk P.O.) | Cat. (maximum peak decrease of systolic blood pressure (SBP) in SHR) ([1]; single oral dose 1.0 mpk P.O.)
125 | 800 | CC1(c2ccc(F)c(F)c2)C(=O)Nc2nc(-c3cn4ccnc4c(CCC(F)(F)F)n3)ncc21 (centres unmarked) [Example 37B, 5-(3,4-difluorophenyl)-5-methyl-2-(8-(3,3,3-trifluoropropyl)imidazo[1,2-a]pyrazin-6-yl)-5H-pyrrolo[2,3-d]pyrimidin-6(7H)-one] | B (Category B=SBP in SHRs 20-40 mmHg) | –
101 | 92 | CCCc1nc(-c2ncc3c(n2)NC(=O)C3(C)c2ccc(Cl)cc2)cn2ccnc12 (centres unmarked) [Example 39A, 5-(4-chlorophenyl)-5-methyl-2-(8-propylimidazo[1,2-a]pyrazin-6-yl)-5H-pyrrolo[2,3-d]pyrimidin-6(7H)-one] | – | A (Category A=SBP in SHRs<20 mmHg)
121 | 50 | CCCCc1nc(-c2ncc3c(n2)NC(=O)C3(C)c2ccc(F)cc2)cn2ccnc12 (centres unmarked) [Example 78A, 2-(8-Butylimidazo[1,2-a]pyrazin-6-yl)-5-(4-fluorophenyl)-5-methyl-5H-pyrrolo[2,3-d]pyrimidin-6(7H)-one] | – | C (Category C=SBP in SHRs>40 mmHg)
166 | 72 | CC1(c2ccc(F)cc2)C(=O)Nc2nc(-c3cn4ccnc4c(CCC(F)(F)C(F)(F)F)n3)nc(C3CC3)c21 (centres unmarked) [Example 75A, 4-cyclopropyl-5-(4-fluorophenyl)-5-methyl-2-(8-(3,3,4,4,4-pentafluorobutyl)imidazo [1,2-a]pyrazin-6-yl)-5H-pyrrolo[2,3-d]pyrimidin-6(7H)-one] | – | –
135 | 23 | CC1(c2ccc(F)cn2)C(=O)Nc2nc(-c3cn4ccnc4c(CCC(F)(F)C(F)(F)F)n3)nc(C3CC3)c21 (centres unmarked) [Example 71B, 4-Cyclopropyl-5-(5-fluoropyridin-2-yl)-5-methyl-2-(8-(3,3,4,4,4-pentafluorobutyl)imidazo[1,2-a]pyrazin-6-yl)-5H-pyrrolo[2,3-d]pyrimidin-6(7H)-one] | – | –
111 | 122 | CC1(c2ccc(F)cc2)C(=O)Nc2nc(-c3cn4ccnc4c(Cc4ccc(F)cc4)n3)ncc21 (centres unmarked) [Example 80A, 2-(8-(4-fluorobenzyl)imidazo[1,2-a]pyrazin-6-yl)-5-(4-fluorophenyl)-5-methyl-5H-pyrrolo[2,3-d]pyrimidin-6(7H)-one] | – | –
117 | 170 | Cc1nc(-c2cn3ccnc3c(CCC(F)(F)C(F)(F)F)n2)nc2c1C(C)(c1ccc(F)cc1)C(=O)N2 (centres unmarked) [Example 77A, 5-(4-fluorophenyl)-4,5-dimethyl-2-(8-(3,3,4,4,4-pentafluorobutyl)imidazo [1,2-a]pyrazin-6-yl)-5H-pyrrolo[2,3-d]pyrimidin-6(7H)-one] | – | –
125 | 220 | O=C1Nc2nc(-c3cn4ccnc4c(CCC(F)(F)C(F)(F)F)n3)ncc2C1(c1ccc(F)cn1)C1CC1 (centres unmarked) [Example 53A, 5-cyclopropyl-5-(5-fluoropyridin-2-yl)-2-(8-(3,3,4,4,4-pentafluorobutyl)imidazo[1,2-a]pyrazin-6-yl)-5H-pyrrolo[2,3-d]pyrimidin-6(7H)-one] | – | –
123 | 11 | CCCCc1nc(-c2ncc3c(n2)NC(=O)C3(c2ccc(Cl)c(F)c2)C2CC2)cn2ccnc12 (centres unmarked) [Example 47A, 2-(8-butylimidazo[1,2-a]pyrazin-6-yl)-5-(4-chloro-3-fluorophenyl)-5-cyclopropyl-5H-pyrrolo[2,3-d]pyrimidin-6(7H)-one] | – | –
